Experimental findings from publication PMC6072878, “Brasilianoids A–F, New Meroterpenoids From the Sponge-Associated Fungus Penicillium brasilianum” (Frontiers in Chemistry, 2018) are described below.

The term inhibition denotes the change of the read-out against control, counted positive when it falls. A high value points to a strong effect.

Data set [1] concerns HBV virus in HepG2.2.15 cells. Kind of data set: In vitro anti-HBV effects (HBV DNA, real time PCR). The data set is classed as cell-based. As to conditions: 10 μM. As for the experimental part:
HepAD38 cells were cultured with DMEM in 48-well plate at 1 × 10^5 cells/well for 24 h, then treated with 10 μM of each compound for 72 h. After 4 days, the cells were washed with precooled PBS for 2 times. HBV progeny DNA of HepAD38 cells were extracted using QIAamp DNA Blood Mini kit (Biomiga) according to the manufacturer's instruction. Total DNA was reversely transcribed using PrimeScript RT reagent Kit (Takara, Dalian, China). PCR amplification was performed on an StepOne Plus real time PCR system (Applied Biosystems, Foster City, CA) using the SYBR Green Master Mix (Applied Biosystems, Foster City, CA). All experiments were performed in triplicate, and the relative levels of assayed HBV DNA were calculated with the delta–delta CT method using lamivudine as a positive control, and normalized to non-treated control. […]
8. Assay for in vitro anti-HBV effects
HepG2. 2. 15 cells were cultured with DMEM in 48-well plate at 1×10^5 cells/well for 24 h, then treated with 10 µM of compounds for 72 h. At d 4, these cells were washed 2 times with precooled PBS, and treated with 10 µM of compounds for 72 h.
HBV progeny DNA of HepG2. 2. 15 cells were extracted using QIAamp DNA Blood Mini kit (Biomiga) according to the manufacturer's instruction. Then total DNA was reverse transcribed using PrimeScript RT reagent Kit (Takara, Dalian, China). The primers were designed and synthesized by Takara, and the sequences of the primers […]
PCR amplification was performed on an StepOne Plus real time PCR system (Applied Biosystems, Foster City, CA) using the SYBR Green Master Mix (Applied Biosystems, Foster City, CA). All experiments were performed in triplicate, and the relative levels of assayed HBV DNA were calculated with the […]
delta‒delta CT method using lamivudine expressions as positive control, and normalized to non-treated control. […]
(Takara, Dalian, China). The primers were designed and synthesized by Takara, the […]
performed on an StepOne Plus real time PCR system (Applied Biosystems, Foster City, CA) using the SYBR Green Master Mix (Applied Biosystems, Foster City, CA). […]
In general terms: Quantitative PCR measures a nucleic acid by following its amplification.

Data set [2] can be described thus: Cytotoxic activity toward tumor cell line A549. Format: cell-based. As to conditions: human, A549 tumor cells.
The nature of data set [3]: Cytotoxic activity toward tumor cell line U937. As to conditions: human, U937 tumor cells. The data set is classed as cell-based.
The nature of data set [4]: Cytotoxic activity toward tumor cell line SMMC7721. Format: cell-based. As to conditions: human, SMMC7721 tumor cells.
In data set [5] the test system is NO production in LPS-induced RAW 264.7 macrophages. As to the kind of experiment: Inhibition of LPS induced NO production in RAW264.7 macrophages (Griess reagent). The data set is classed as cell-based, mouse. As for the experimental part:
All compounds were assayed by measuring the inhibitory effects on NO production induced by LPS in mouse macrophage RAW 264.7 cells. The RAW 264.7 cells were seeded in each well of a 96-well plate at a concentration of 5 × 10^5 cells/ml in DMEM medium containing 10% fetal bovine serum, 2 mmol/l glutamine, 100 U/ml penicillin, and 100 μg/ml streptomycin. After incubation at 37°C in a humidified atmosphere of 5% CO2 air for 12 h, cells were treated with LPS (1 μg/ml) and compounds ([…], and compound was dissolved in DMSO to dilute until the final DMSO concentration <0.1%, v/v), then incubation for 24 h at 37°C. NO production was determined by measuring the quantity of nitrite in the culture medium by the Griess reagent. Aminoguanidine was selected as a positive control. A 50 μl of the supernatant of culture medium was mixed with 100 μl of the Griess reagent. Using nitrite to generate a standard curve, nitrite production was measured by a microplate reader at 540 nm. Cell viability was examined by the MTT method (Wu et al., [2016]). The compounds with inhibitory rate more than 50% at a dose of 50 μg/ml were further detected in the gradient concentrations to calculate IC50 values. […]
(§1) 7. Assay for inhibition toward nitric oxide production in RAW264.7 macrophages The experiment was conducted according to a literature procedure.1 Murine monocytic RAW264.7 cells grown in 96-well cell culture plates (2 × 10^5 cells/well) and pretreated with serial concentrations of the compounds 1‒8 for 30 min, followed by stimulation with LPS (1 μg/mL) under a humidified atmosphere with 5% CO2 at 37°C. After 24 h, the NO production of the supernatant was determined by adding the 100 μL of Griess reagent. Subsequently, the MTT
(§2) [3-(4,5-dimethylthiazol-2-yl)-2,5-diphenyltetrazolium bromide] reduction2 was used to evaluate the cell viability, and results were expressed as the mean value of triplicate determinations. The positive control was aminoguanidine.2 […]
On the technique in general: The Griess reaction detects nitrite, a stable product of nitric oxide.

Data set [6] can be described thus: Cell viability of RAW264.7 macrophages (MTT method). Format: cell-based, mouse. As to conditions: mouse. As for the experimental part: as §1, §2
A further data set deals with HaCaT cells. Kind of data set: Protection against UVB-induced cell damage in HaCaT cells (MTT assay). The data set is classed as cell-based. As to conditions: HaCaT cells, UVB 30 mJ/cm^2, 20 μM, 24 h; UVB alone 70% of normal group. Here is the method:
HaCaT cells were seeded at 5 × 10^5 cells per well in 6-well plates and incubated under starvation conditions for 24 h using serum-free MEM. HaCaT cells were exposed to UVB irradiation (UVB lamp: SUV-1000, Sigma-China) at a dose of 30 mJ/cm^2. After UVB irradiation, DMEM medium containing 1 (20 μM) or epigallocatechin gallate (20 μM) was added and the cells were incubated for 24 h, and then the MTT assay was performed.
For orientation: Formazan colour is commonly taken as a measure of viable cells.

[7] abbreviates: Mus musculus, RAW264.7, 24 h, LPS 1 μg/ml, 24 h.
Where [8] appears, read: RAW264.7 macrophages, RAW264.7, MTT, Table 3, read-out: CC50 (μM) Cytotoxicity.
Where [9] appears, read: RAW264.7 macrophages, Table S9 of the supplement, read-out: CC50 (M), 50% cytotoxic concentration.
[10] abbreviates: Mus musculus, RAW264.7, read-out: IC50 (M), 50% inhibitory concentration.
Where [11] appears, read: RAW264.7, MTT, Table 3, read-out: CC50 (μM) Cytotoxicity.
[12] abbreviates: Table S9 of the supplement, read-out: CC50 (M), 50% cytotoxic concentration.
Setting [13] is: Mus musculus, RAW264.7, Table S9 of the supplement, read-out: IC50 (M), 50% inhibitory concentration.

Like-named read-outs stand apart in the source and are kept apart here.

As to `Nc1ccn([C@@H]2CS[C@H](CO)O2)c(=O)n1` [lamivudine, reference compound], the “inhibitory rate of DNA expression of the HBV virus” value (“inhibitory rate” for short) in data set [1] amounted to 75%.
Regarding `C=C1C2(C)CC3C4(C)C=CC(=O)OC(C)(C)C4CCC3(C)C13C(=O)OC(C)C3(O)C2=O` [Compound 2, (5aS, 5bS, 7R, 8aR, 9S, 11aR, 11bS, 13aS)-8a-hydroxy-1,1,5a, 7,9, 11b-hexamethyl-14-methylene-5a, 5b, 6,7,8a, 9, 11b, 12, 13, 13a-decahydro-1H, 11H-7,11a-methanofuro[3″,4″:3′,4′]cyclohepta[1′,2′:3,4]benzo[1,2-c]oxepine-3,8,11-trione], the IC50 in data set [2] was more than 10 µM; in data set [3], more than 10 µM; in data set [4], more than 10 µM; in data set [5] (Mus musculus, RAW264.7, 24 h, LPS 1 μg/ml, 24 h, Table 3, read-out: IC50 (μM) NO) it was 37.7 ± 5.25 µM. Besides, the “inhibition toward NO production (in words)” value in data set [5] (LPS-induced RAW 264.7 macrophages) was “moderate inhibition”. The compound further showed an inhibition at 50 µg/mL in data set [5] (setting [7]) of 58%. Also, the CC50 at 24 h in data set [6] (setting [8]) was more than 100 µM; in data set [6] (setting [9]), more than 50 µM.
On to `N=C(N)NN` [Aminoguanidine, reference compound], for which, in data set [5] (LPS 1 μg/ml, 24 h, Table 3, read-out: IC50 (μM) NO), the IC50 stood at 7.62 ± 0.08 µM.
For `C=C1C2(C)CC3C4(C)C(O)C5CC(C)(OC5=O)C4CCC3(C)C13C(=O)OC(C)C3(O)C2=O` [Compound 6, (1R, 4S, 5R, 5aS, 5bR, 7R, 8aR, 9R, 11aR, 11bS, 13aS)-5,8a-dihydroxy-1,5a,7,9,11b-pentamethyl-14-methylenedodecahydro-1H,11H-1,4:7,11a-dimethanofuro[3″,4″:3′,4′]cyclohepta[1′,2′:3,4]benzo[1,2-c]oxepine-3,8,11-trione], the IC50 was more than 10 µM in data set [2], more than 10 µM in data set [3], more than 10 µM in data set [4] and more than 50 µM in data set [5] (setting [10]). Moreover, the CC50 at 24 h in data set [6] (setting [11]) is more than 100 µM; in data set [6] (setting [12]), more than 50 µM.
For `C=C1[C@@]2(C)C[C@H]3[C@](C)(CCC(=O)OC)[C@@H](C(C)(C)O)CC[C@]3(C)[C@]1(C(=O)OC)C(=O)[C@@](C)(O)C2=O` [Compound 7, preaustinoid D], the IC50 in data set [2] is more than 10 µM; in data set [3], more than 10 µM; in data set [4] it was more than 10 µM; in data set [5] (setting [13]) it was more than 50 µM. 50 µg/mL produced 28% inhibition in data set [5] (setting [7]). The CC50 at 24 h in data set [6] (setting [8]) was more than 100 µM; in data set [6] (setting [9]), more than 50 µM.
`C=C1[C@@]2(C)C[C@H]3[C@](C)(CCC(=O)OC)[C@@H](C(C)(C)O)CC[C@]3(C)[C@@]13C(=O)O[C@@H](C)[C@@]3(O)C2=O` [Compound 5, methyl 3-((3S, 3aR, 5R, 6aS, 7S, 8S, 10aS, 10bR)-3a-hydroxy-8-(2-hydroxypropan-2-yl)-3,5,7,10a-tetramethyl-11-methylene-1,4-dioxodecahydro-1H,3H-5,10b-methanobenzo[3,4]cyclohepta[1,2-c]furan-7-yl)propanoate]: the IC50 in data set [2] is more than 10 µM; in data set [3], more than 10 µM; in data set [4], more than 10 µM; in data set [5] (setting [13]), more than 50 µM. Moreover, at 50 µg/mL the inhibition in data set [5] (setting [7]) was 36%. Further, the results for the CC50 at 24 h in data set [6] (setting [8]) and in data set [6] (setting [9]) were more than 100 µM and more than 50 µM, respectively. For the same compound, the “inhibitory rate” value in data set [1] turned out to be 10%.
For `C=C1[C@@]2(C)C[C@H]3[C@]4(C)C=CC(=O)OC(C)(C)[C@H]4CC[C@]3(C)[C@]1(C(=O)OC)C(=O)[C@@](C)(O)C2=O` [Compound 8, preaustinoid A2], the IC50 in data set [2] was more than 10 µM; in data set [3], more than 10 µM; in data set [4] it was more than 10 µM; in data set [5] (setting [10]), more than 50 µM. For the same compound, the CC50 at 24 h is more than 100 µM in data set [6] (setting [11]) and more than 50 µM in data set [6] (setting [12]).
As for `O=C(O[C@@H]1Cc2c(O)cc(O)cc2O[C@@H]1c1cc(O)c(O)c(O)c1)c1cc(O)c(O)c(O)c1` [epigallocatechin gallate, reference compound], the “cell viability after UVB irradiation” value in the data set with HaCaT cells is reported as 75%.
Turning to `C=C1[C@@]2(C)C[C@H]3[C@](C)(CCC(=O)OC)[C@@H](C(C)(C)O)CC[C@]3(C)[C@@]13C(=O)O[C@H](C)[C@@]3(O)C2=O` [Compound 4, methyl 3-((3R, 3aR, 5R, 6aS, 7S, 8S, 10aS, 10bR)-3a-hydroxy-8-(2-hydroxypropan-2-yl)-3,5,7,10a-tetramethyl-11-methylene-1,4-dioxodecahydro-1H,3H-5,10b-methanobenzo[3,4]cyclohepta[1,2-c]furan-7-yl)propanoate], the IC50 is more than 10 µM in data set [2], more than 10 µM in data set [3], more than 10 µM in data set [4] and more than 50 µM in data set [5] (setting [13]). In data set [5] (setting [7]), this compound came in with an inhibition at 50 µg/mL of 32%. Further, the CC50 at 24 h in data set [6] (setting [8]) is more than 100 µM; in data set [6] (setting [9]), more than 50 µM. In addition, the “inhibitory rate” value in data set [1] was 15%.
